Results reported in patent US7402310B2, “Deoxyribonuclease, gene encoding same and use thereof” (priority 2001, dated 2008).

Columns and labels:
[1] = molecular target: T1, DLAD (Mus musculus, UniProt Q9QY48); test: Sensitivity of DLAD DNase activity against inhibitors; type: biochemical; conditions: standard conditions: pH 5.2, 45° C., 20 min, plasmid DNA substrate; read-out: IC50, inhibition of DLAD activity
T1 construct: These plasmids encode the mature proteins of DLAD and DNase II, respectively, wherein Myc and His-tags are added to their C termini; made in house; host or cells: HeLa S3 cells (human), transient transfection, Ni-NTA purification
T1 sequence (Q9QY48 23-354): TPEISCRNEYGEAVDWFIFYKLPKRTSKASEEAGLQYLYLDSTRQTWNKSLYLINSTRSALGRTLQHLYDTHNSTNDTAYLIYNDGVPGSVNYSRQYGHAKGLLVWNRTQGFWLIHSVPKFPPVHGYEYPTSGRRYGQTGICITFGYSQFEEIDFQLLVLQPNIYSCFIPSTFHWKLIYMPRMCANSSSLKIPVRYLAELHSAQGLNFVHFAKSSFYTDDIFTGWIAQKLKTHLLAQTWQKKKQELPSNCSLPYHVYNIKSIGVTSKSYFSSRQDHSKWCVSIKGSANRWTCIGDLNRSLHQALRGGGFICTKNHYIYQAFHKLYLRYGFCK
Method: In the same manner as in (2) of Example 3, HeLa S3 cells (5×10^6) were transfected with 25 μg of pcmDLAD-Myc-His or pcmDNaseII-Myc-His, individually. These plasmids encode the mature proteins of DLAD and DNase II, respectively, wherein Myc and His-tags are added to their C termini. After incubation of the cells for 48 hr, recombinant DLAD and recombinant DNase II were purified by IMAC using Ni-NTA spin column, in the same manner as in (2) of Example 3. The purified DLAD (or DNase II), which was eluted in 300 μl of elution buffer [50 mM sodium phosphate (pH 8.0) containing 250 mM imidazole and 300 mM NaCl], was dialyzed against 20 mM Mes-NaOH containing 1 mM 2-mercaptoethanol and used in the following assay for enzyme activities. The Sample obtained by treating HeLa S3 cells transfected with empty vector in the same manner was used as a control.
In the following experiments, the assay for DNase activity was performed as below, unless otherwise described. 20 μl of reaction mixture [50 mM Mes-NaOH (pH 5.2), 1 mM 2-mercaptoethanol, 1 unit of enzyme, 500 ng supercoiled or EcoR I-digested linear pBLUESCRIPT KS+ phagemid vector] was prepared on ice and incubated at 45° C. for 20 min. The reaction was terminated with phenol/chloroform and 5 μl aliquot of the reaction mixture was subjected to 1% agarose gel electrophoresis. After ethidium bromide staining, the image was scanned with CCD camera (Atto) under UV transillumination and optical density of the band corresponding to the full length substrate DNA was quantified by densitometry (NIH image 1.60). DNase activity was determined using reduction of the band intensity corresponding to the full length substrate DNA as an index. In the present invention, 1 unit of DLAD and DNase II activities are defined as their amounts required to decrease the band intensity corresponding to 200 ng of the full length substrate DNA under the above-mentioned reaction conditions.
DLAD activities were determined in the presence of various concentrations of DNase inhibitors [MgCl2 (FIG. 2A, ◯), MgSO4 (FIG. 2A, ●), aurintricarboxylic acid (FIG. 2B), G-actin (FIG. 2C), CoCl2 (FIG. 2D, ▪), NiCl2 (FIG. 2D, Δ) and ZnCl2 (FIG. 2D, ●)] under the above-mentioned standard conditions to analyze its sensitivity against the inhibitors. […] In contrast, it is known that there are little differences between these three divalent metal ions in inhibitory effect on DNase II [J. Biochem., 87: 1097-1103 (1980)].

[2] = molecular target: T1, DLAD; test: Divalent cation-dependency of DLAD activity (chelators); type: biochemical; conditions: 1 mM chelator; pH 5.2 and pH 7.2; supercoiled plasmid
Method: (§1) In the same manner as in (2) of Example 3, HeLa S3 cells (5×10^6) were transfected with 25 μg of pcmDLAD-Myc-His or pcmDNaseII-Myc-His, individually. These plasmids encode the mature proteins of DLAD and DNase II, respectively, wherein Myc and His-tags are added to their C termini. After incubation of the cells for 48 hr, recombinant DLAD and recombinant DNase II were purified by IMAC using Ni-NTA spin column, in the same manner as in (2) of Example 3. […]
(§2) In the following experiments, the assay for DNase activity was performed as below, unless otherwise described. […] After ethidium bromide staining, the image was scanned with CCD camera (Atto) under UV transillumination and optical density of the band corresponding to the full length substrate DNA was quantified by densitometry (NIH image 1.60). DNase activity was determined using reduction of the band intensity corresponding to the full length substrate DNA as an index. […]
Using a supercoiled plasmid as a substrate, DLAD activities in the presence and absence of a divalent cation chelator were determined under acidic (50 mM Mes-NaOH, pH 5.2) and neutral (50 mM Mops-NaOH, pH 7.2) conditions, respectively. […]

[3] = Characterization of recombinant rat and human DLAD; type: biochemical; conditions: recombinant protein from HeLa S3 cells
Text: Using the same strategy as in Example 1, a rat EST clone (GenBank AF178974) encoding the amino acid sequence with homology to the deduced amino acid sequence of human DNase II was identified. Oligonucleotide primers were synthesized based on the nucleotide sequence of this clone, followed by the RACE with liver poly A(+) RNA derived from Wister rat, which is connately pigment-deficient (albino), as a template to clone the full length rat DLAD cDNA. From the sequence analysis by a conventional method, it was deduced that this cDNA contains an ORF encoding 356 amino acids with a signal peptide consisting of 22 amino acids at the N terminus. […] An expression vector encoding rat DLAD with Myc and His-tags at the C terminus (prDLAD-Myc-His) was constructed by the same strategy as in (1) of Example 3. HeLa S3 cells were transfected with this vector to generate a recombinant rat DLAD.
(sequence complementary to the nucleotide sequence of the nucleotide Nos. 973 to 999 of the nucleotide sequence shown in Sequence Listing, SEQ ID NO: 4) were synthesized and, further using the above-mentioned linker primer AP1 together with these primers, RACE was performed with human liver-derived poly A(+) RNA as a template to clone the full length human DLAD cDNA. […]

[4] = test system: supercoiled plasmid; test: Active pH range and optimal pH of DNase activity; type: biochemical; conditions: Mes-NaOH; pH 4.0 to 7.6 examined
Method: as §1, §2
Using a supercoiled plasmid as a substrate, DLAD and DNase II activities were determined under the above-mentioned standard conditions except varying kinds of buffers and pH [i.e., acetate-NaOH (pH 4.0 and 4.4), Mes-NaOH (pH 4.8, 5.2, 5.6, 6.0 and 6.4) and Mops-NaOH (pH 6.4, 6.8, 7.2 and 7.6)]. […]

[5] = test system: supercoiled p[…]+ phagemid vector; test: Mode of DNA hydrolysis (end labeling of degraded plasmid); type: biochemical; conditions: standard conditions
Method: Using a supercoiled pBLUESCRIPT KS+ phagemid vector as a substrate, enzyme reaction of DLAD or DNase II was performed under the above-mentioned standard conditions. After terminating the reaction, contaminants were removed by phenol/chloroform treatment to isolate degraded plasmid DNA. The 3′ ends were labeled in 50 μl of a reaction solution consisting of 20 units of terminal deoxynucleotidyl transferase (Toyobo), 0.83 mCi/ml […], 100 mM sodium cacodylate (pH 7.2), 0.2 mM DTT and 1 mM CoCl2. The 5′ ends were labeled in 50 μl of a reaction solution consisting of 20 units of polynucleotide kinase (Toyobo), 0.83 mCi/ml [γ-^32P]ATP, 50 mM Tris-HCl (pH 8.0), 10 mM MgCl2 and 10 mM 2-mercaptoethanol. The end-labeling treatments were performed as to both DNAs with and without pretreatment with 20 units of calf intestinal alkaline phosphatase (Takara) in the presence of 50 mM Tris-HCl (pH 8.0) and 1 mM MgCl2 to remove the phosphoryl groups in the ends of DNAs, respectively. Unincorporated nucleotides were removed by ethanol precipitation. The labeled DNA was subjected to 1% agarose gel electrophoresis, transferred onto nylon membrane and analyzed with BAS 1500 image analyzer (Fuji Film). […]

[6] = Stability in the medium for HeLa S3 cells

## O=C(O)C1=CC(=C(c2ccc(O)c(C(=O)O)c2)c2ccc(O)c(C(=O)O)c2)C=CC1=O [Aurintricarboxylic acid]
[1]
  IC50: 0.006 mM

## O=C(O)CN(CCN(CC(=O)O)CC(=O)O)CC(=O)O [EDTA]
[2]
  Effect of divalent cation chelator on DLAD activity: no effect

## O=C(O)CN(CCOCCOCCN(CC(=O)O)CC(=O)O)CC(=O)O [EGTA]
[2]
  Effect of divalent cation chelator on DLAD activity: no effect

## [Cl-].[Cl-].[Mg+2] [MgCl2]
[1]
  IC50: 13 mM

## O=S(=O)([O-])[O-].[Mg+2] [MgSO4]
[1]
  IC50: 7 mM

## [Cl-].[Cl-].[Zn+2] [Zn^2+, ZnCl2]
[1]
  IC50: 0.2 mM

B1: rat DLAD: recombinant rat DLAD, ORF encoding 356 amino acids, Myc and His-tags at the C terminus (protein, UniProt Q9QZK9 23-356, looked up)
Deoxyribonuclease-2-beta: TPVISCINEDGKAVDWFAFYKLPRRTSRGGTGMGLDYLYLDSTMRTWSKSHHLINSSRSSLGRTLEQLYEAHNAKNDTAYLIYNDAVPASVNYSGNYGHAKGLLVWNRVQGFWLIHSIPKFPPVPEKGYEYPSSGRQYAQSGLCITLKYSQYETIDSQLLVFQPNIYSCFIPNIFRWELIHMPQMCAKSSASKIPSRRLTVLQSAQGLNFLHFAKSTFYTDDIFAAWIAQKLKVHLLVESWQRKNHELPSNCSLPYHVYNIKAIRGPLQSDFPSHHDHSKWCVSTKDSQARWTCIGDLNRSPHQALRSGGFICSKNRYIYQSFDRLVSHYASCN
modifications: C-terminal Myc and His tags
notes: recombinant rat DLAD, ORF encoding 356 amino acids, Myc and His-tags at the C terminus
[3]
  Properties: active pH range, divalent cation-dependency, mode of DNA cleavage, sensitivity to inhibitors: properties similar to mouse DLAD

B2: human DLAD: recombinant human DLAD, SEQ ID NO: 3, Myc and His-tags at the C terminus (protein, listed as Homo sapiens)
chain: MKQKMMARLLRTSFALLFLGLFGVLGAATISCRNEEGKAVDWFTFYKLPKRQNKESGETGLEYLYLDSTTRSWRKSEQLMNDTKSVLGRTLQQLYEAYASKSNNTAYLIYNDGVPKPVNYSRKYGHTKGLLLWNRVQGFWLIHSIPQFPPIPEEGYDYPPTGRRNGQSGICITFKYNQYEAIDSQLLVCNPNVYSCSIPATFHQELIHMPQLCTRASSSEIPGRLLTTLQSAQGQKFLHFAKSDSFLDGIFAAWMAQRLKTHLLTETWQRKRQELPSNCSLPYHVYNIKAIKLSRHSYFSSYQDHAKWCISQKGTKNRWTCIGDLNRSPHQAFRSGGFICTQNWQIYQAFQGLVLYYESCK
modifications: C-terminal Myc and His tags
[3]
  Properties: active pH range, divalent cation-dependency, mode of DNA cleavage, sensitivity to inhibitors: properties similar to mouse DLAD

B3: DLAD: novel acid DNase cleaving DNA independently from divalent cations; mouse, amino acid Nos. 1 to 332 of SEQ ID NO: 1 (protein, listed as Mus musculus)
chain: MTAKPLRTVLSLLFFALSGVLGTPEISCRNEYGEAVDWFIFYKLPKRTSKASEEAGLQYLYLDSTRQTWNKSLYLINSTRSALGRTLQHLYDTHNSTNDTAYLIYNDGVPGSVNYSRQYGHAKGLLVWNRTQGFWLIHSVPKFPPVHGYEYPTSGRRYGQTGICITFGYSQFEEIDFQLLVLQPNIYSCFIPSTFHWKLIYMPRMCANSSSLKIPVRYLAELHSAQGLNFVHFAKSSFYTDDIFTGWIAQKLKTHLLAQTWQKKKQELPSNCSLPYHVYNIKSIGVTSKSYFSSRQDHSKWCVSIKGSANRWTCIGDLNRSLHQALRGGGFI
[4]
  Optimal pH of DNase activity: 5.2
[5]
  DNA cleavage mode (ends generated): 3′-P/5′-OH ends
[6]
  Stability in the medium: as stable as DNase II
